Reference: US20090215804A1, “FUMARATE OF 4- [[4- [[4- (2-CYANOETHENYL) -2,6-DIMETHYLPHENYL)AMINO] -2-PYRIMIDINYL]AMINO]BENZONITRILE” (priority 2004, published 2009)
Converted amounts (≈) assume the structure as drawn. Like-named read-outs stand apart in the source and are kept apart here.

Columns and labels:
[1] = system: HIV; conditions: wild type of HIV as well as drug and multi drug resistant strains of HIV; cited from earlier work
[2] = Solubility data; format: physicochemical
Source text: Table 1 lists solubility data of free base (E) 4-[[4-[[4-(2-cyanoethenyl)-2,6-dimethylphenyl]amino]-2-pyrimidinyl]amino]benzonitrile and of the compound of formula (I-a).

[3] = BCS classification; format: physicochemical
Source text: A scientific framework for classifying drug substances based on their aqueous solubility and intestinal permeability is the Biopharmaceutics Classification System or BCS. […] Free base and fumarate salt may be classified as BCS class 2 compounds.

[4] = Physical stability of the crystal structure after storage, infrared spectroscopy; format: physicochemical; conditions: six weeks storage, conditions of Table 2, infrared spectroscopy
Procedure: The stability of the crystal structure of the compound of formula (I-a) was studied after storage for a period of six weeks under different conditions of humidity and temperature. The same conditions as described in Table 2 were applied. After storage the compound was analyzed with infrared spectroscopy.

[5] = Hygroscopicity; format: physicochemical
[6] = Chemical stability: storage at different humidity and temperature, HPLC for percentage of impurities; format: physicochemical
Procedure: Compound (I-a) was stored under different conditions of humidity and temperature. After storage, the salt was analyzed by High Performance Liquid Chromatography (HPLC) for percentage of impurities.

Cc1cc(C=CC#N)cc(C)c1Nc1ccnc(Nc2ccc(C#N)cc2)n1 [4-[[4-[[4-(2-cyanoethenyl)-2,6-dimethylphenyl]amino]-2-pyrimidinyl]amino]-benzonitrile]
HIV replication inhibiting activity [1]: excellent

Cc1cc(/C=C/C#N)cc(C)c1Nc1ccnc(Nc2ccc(C#N)cc2)n1 [Compound of formula (I-a)]
Concentration in mg/ml, 0.01 N HCl ([2]; solubility in 0.01 N HCl): 0.013 mg/mL | solubility ([2]; water, solubility in water, read-out: Concentration in mg/ml, Water): 0.0009 mg/mL | solubility in water and in HCl (in words) ([2]; water): poor solubility | BCS class [3]: BCS class 2 | stability of the crystal structure [4]: No changes in crystal structure were observed | hygroscopicity [5]: not hygroscopic | Sum of impurities % ([6]; 40° C./75% RH, 4 weeks): 0.62 %, w/w | Sum of impurities % ([6]; 40° C./75% RH, 8 weeks): 0.61 %, w/w | Sum of impurities % ([6]; 50° C./air, 4 weeks): 0.62 %, w/w | Sum of impurities % ([6]; 50° C./air, 8 weeks): 0.61 %, w/w | Sum of impurities % ([6]; RT/56% RH, 4 weeks): 0.58 %, w/w | Sum of impurities % ([6]; RT/56% RH, 8 weeks): 0.64 %, w/w | Sum of impurities % ([6]; RT/75% RH, 4 weeks): 0.59 %, w/w | Sum of impurities % ([6]; RT/75% RH, 8 weeks): 0.65 %, w/w | Sum of impurities % ([6]; RT/<5% RH, 4 weeks): 0.61 %, w/w | Sum of impurities % ([6]; RT/<5% RH, 8 weeks): 0.62 %, w/w | Sum of impurities % ([6]; Reference, 1 week): 0.58 %, w/w | chemical stability (in words) ([6]; storage conditions of Table 2): chemically stable

Cc1cc(/C=C/C#N)cc(C)c1Nc1ccnc(Nc2ccc(C#N)cc2)n1 [Free base (E-isomer), (E) 4-[[4-[[4-(2-cyanoethenyl)-2,6-dimethylphenyl]amino]-2-pyrimidinyl]amino]benzonitrile]
solubility ([2]; 0.01 N HCl, simulated gastric fluid, solubility in 0.01 N HCl, read-out: Concentration in mg/ml, 0.01 N HCl): 0.019 mg/mL (≈ 51.9 µM) | Concentration in mg/ml, PEG 400 ([2]; solubility in PEG 400): 40 mg/mL | Concentration in mg/ml, Water ([2]; solubility in water): 0.00002 mg/mL | solubility in water and in HCl (in words) ([2]; water): poor solubility | BCS class [3]: BCS class 2
